Data on one compound can be found in PMC6207720, “Identification and antitumor activity of a novel inhibitor of the NIMA-related kinase NEK6” (Scientific Reports, 2018).

One test deals with T1, NEK6 (Homo sapiens, UniProt Q9HC98).
T1 construct: purchased Carna 05-130
As to the kind of experiment: Off-chip Mobility Shift Assay (MSA), NEK6. The test is classed as biochemical. As for the experimental part: (§1) Therefore, we decided to evaluate the selectivity of compound 8 against a panel of NEK kinases at 10 µM, using the technique of Off-chip Mobility shift assay. This concentration was chosen according to the guidelines proposed by Knight and Shokat, since the probability of off-target effects increases dramatically above 10 µM[36]. Furthermore, ATP concentration was set to approximate the Km,ATP for each kinase, so that the resulting selectivity profile directly reflects the intrinsic affinities of the inhibitor[37]. […] A major consequence of this substitution may be the redistribution of surface charges at the flexible activation loop resulting in an altered electrostatic potential and ability of NEK6 kinase to interact with other molecules.
(§2) The inhibitory activity of compounds 8 and 21 on NEK6 was also verified with MSA technique (Off-chip Mobility shift assay) (CARNA Biosciences Study ID: CBS170097, CARNA Biosciences, Kobe). […] PKR Inhibitor was used as positive control. For profiling study against NEK kinases (i.e. NEK1, NEK2, NEK6, NEK7, NEK9) (CARNA Biosciences Study ID: CBS170098), 8 was tested at 10 μM and ATP concentration approximating Km for each kinase. Assay condition for kinases are available on “Kinase profiling book” downloading by www.carnabio.com (https://www.carnabio.com/output/pdf/ProfilingProfilingBook_en.pdf).

A further test has as its system PEO1 cells. The test is described as follows: Cell cycle analysis by flow cytometry. Particulars: 48 hours, compound at its IC50 concentration. The test is classed as cell-based, human. Here is the method:
In order to assess whether the ability of compound 8 to inhibit cell proliferation was accounted for by cell cycle-related changes in cell division, we analysed the progression of PEO1 cells through the cell cycle by flow cytometry at 24, 48 and 72 hours from treatment. PEO1 was selected since, in our experimental conditions, was the cell line showing the highest sensitivity to 8. […] The effect was already measurable at the first experimental time point (24 h) and remained stable over time (Fig. 8).
PEO1 cell cycle perturbations induced by compound 8 (used at its IC50 concentration) were evaluated by standard flow cytometry methods. Briefly, at the end of each incubation period adherent cells were trypsinized, harvested and washed with cold phosphate-buffered saline several times. Cells were then counted, gently fixed in 70% v/v cold ethanol, adding the ethanol dropwise to the cell pellet while vortexing, and incubated at −20 °C for no longer than 7 days. Prior to DNA staining, fixed cells were spun down and treated with RNase (100 µg/ml) for 10 mins to ensure that only DNA was stained. 1 × 10^6/ml cells were then stained with propidium iodide (PI, 0.5 mg/ml) and stored at +4 °C overnight. The day after, stained cells were subjected to flow cytometry. Flow cytometry analysis was performed using the 6-parameter flow cytometer (2 scatter and 4 fluorescence signals) EPICS-XL (Beckman Coulter). A minimum of 30,000 cells of interest were acquired for each sample at a low flow rate (<200 events/sec). Analysis of cell cycle perturbation was performed by the ModFit LT software (Verity software house). Pulse shape processing was used to exclude cell doublets from the analysis.
(In general: In flow cytometry, cells or beads pass a laser one at a time.)

The target in a further test is NEK7 (Homo sapiens, UniProt Q8TDX7). The test is described as follows: Off-chip Mobility Shift Assay (MSA) profiling, NEK7. The test is classed as biochemical. Particulars: ATP approximating Km. As for the experimental part:
as §1, §2

For another test, the system named is MDA-MB-231 (breast). As to the kind of experiment: Cell-based cytotoxicity assay (ATPlite), MDA-MB-231. The following applies: Homo sapiens, MDA-MB-231, 72 h, NA = not active (IC50 greater than 100 µM), read-out: IC50 Values (µM ± SEM). The text has this: (§3) The following human carcinoma cell lines were used for the study: MDA-MB-231 and MCF-7 (breast cancer; ATCC, Sesto San Giovanni, MI), PEO1 and COV318 (ovarian cancer; ECACC, Salisbury, UK and ATCC), HCT-15 and SW948 (colon cancer; Public Health England, Salisbury, UK and ATCC), NCI-H1975 and NCI-H1299, (lung cancer; ATCC). Cells were routinely tested free of mycoplasma (MycoAlert mycoplasma detection kit, LONZA, Rockland, ME, USA) and validated by STR (Short Tandem Repeat) DNA profiling (BMR Genomics srl, PD). Cells were grown following supplier indication, in a fully humidified atmosphere of 5% CO2/95% air. All the reagents were purchased from Sigma-Aldrich (St. Louis, MO), if not otherwise specified.

The subject of a further test is NCI-H1299 (lung). As to the kind of experiment: Cell-based cytotoxicity assay (ATPlite), NCI-H1299. Particulars: Homo sapiens, NCI-H1299, 72 h, NA = not active (IC50 greater than 100 µM), read-out: IC50 Values (µM ± SEM).
Text: as §3

T1 sequence (Q9HC98 whole entry): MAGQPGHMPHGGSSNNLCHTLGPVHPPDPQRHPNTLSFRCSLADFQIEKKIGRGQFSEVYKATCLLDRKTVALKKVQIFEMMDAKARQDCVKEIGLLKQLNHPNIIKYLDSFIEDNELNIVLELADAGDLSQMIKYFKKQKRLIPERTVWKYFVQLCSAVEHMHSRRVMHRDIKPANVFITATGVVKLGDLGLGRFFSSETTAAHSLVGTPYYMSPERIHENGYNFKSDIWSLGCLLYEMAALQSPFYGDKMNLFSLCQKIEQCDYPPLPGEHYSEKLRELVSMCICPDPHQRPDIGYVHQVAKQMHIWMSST
Chain of NEK7 (Q8TDX7 whole entry): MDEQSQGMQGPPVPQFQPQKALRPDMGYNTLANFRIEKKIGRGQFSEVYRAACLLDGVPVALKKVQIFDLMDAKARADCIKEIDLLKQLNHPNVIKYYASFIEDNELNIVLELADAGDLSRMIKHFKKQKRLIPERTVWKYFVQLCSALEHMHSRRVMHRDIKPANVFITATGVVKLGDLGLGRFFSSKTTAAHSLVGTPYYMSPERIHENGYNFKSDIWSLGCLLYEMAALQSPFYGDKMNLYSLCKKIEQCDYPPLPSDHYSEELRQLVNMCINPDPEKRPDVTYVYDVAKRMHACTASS

Consider `CC1=C(C#N)C(O)=NC(=O)/C1=C\c1ccc(-c2ccccc2)o1` [Compound 8, (5Z)-2-hydroxy-4-methyl-6-oxo-5-[(5-phenylfuran-2-yl)methylidene]-5,6-dihydropyridine-3-carbonitrile], for which the inhibition at 10 µM at NEK6 (10 µM, ATP approximating Km) was 42.5%; at NEK7, at most 0%. For the same compound, the IC50 came to 13.8 µM on NEK6 (CARNA Biosciences Study CBS170097, ATP 75 µM); 65 ± 15 µM in the test with MDA-MB-231 (breast); 87.8 ± 10 µM in the test on NCI-H1299 (lung). The “percentage of PEO1 cells in G0/G1” value with PEO1 cells is reported as 61%. Moreover, the “percentage of PEO1 cells in G2/M” value with PEO1 cells amounted to 16%. In addition, in the test with PEO1 cells, the “percentage of PEO1 cells in S” value worked out at 23%.

As a reminder, the inhibition is how much of the control response was suppressed. What is called IC50 is the concentration that gives 50% inhibition.
